Tested on: human liver microsomal preparations (cytochrome P450 enzyme preparations)
Experiment: Reactive metabolite trapping with compound of formula (I) / (I-IS) in human liver microsomal incubation, neutral loss (129 Da) LC-MS/MS
Assay type: in vitro ADME
Conditions: 10 μM test compound, 1 mg/ml microsomal proteins, 1 mM 1:1 mixture of formula (I) and (I-IS), NADPH generating system, 60 min, 37° C.; neutral loss of 129 Da, doublet mass difference 8 Da
Method: All microsomal incubations described herein were performed at 37° C. in a water bath. The test compound was mixed with human liver microsomal preparations (cytochrome P450 enzyme preparations) in 50 mM potassium phosphate buffer (pH 7.4) supplemented with the non-isotopically labeled compound of formula (I) and the isotopically labeled compound of formula (I-S) that were pre-mixed at an equal molar ratio of 1:1. The resulting mixtures were pre-warmed at 37° C. for 5 min. To the reaction mixtures was then added the co-factor—NADPH generating system—(to initiate the reaction) to yield a final volume of 1000 μl.
The resulting reaction mixtures contained 10 μM test compounds, 1 mg/ml microsomal proteins, 1 mM mixture of non-isotopically labeled compound of formula (I) and isotopically labeled compound of formula (I-IS), 1.3 mM NADP^+, 3.3 mM glucose-6-phosphate, 0.4 U/ml glucose-6-phosphate dehydrogenase, 3.3 mM magnesium chloride.
After a 60 min incubation, the reactions were terminated by the addition of 150 μl of trichloroacetic acid (10%). The resulting mixtures were centrifuged at 10,000 g for 15 min at 4° C. to pellet the precipitated protein, and the supernatants were subjected to solid-phase extractions. Alternatively, the reaction mixtures were subjected to liquid-liquid extractions to recover the metabolites from supernatants.
MS analyses were performed on a Micromass (Manchester, UK) Quattro Micro triple quadrupole mass spectrometer. The ESI ion source was operated in the positive ion mode, and experimental parameters were set as follows: capillary voltage 3.2 kV, source temperature 120° C., desolvation temperature 300° C., sample cone voltage 26 V. Mass spectra collected in the neutral loss scanning mode were obtained by scanning over the range m/z 400-800 in 2.0 s.
For complete profiling of reactive metabolites, samples were first subjected to chromatographic separations with an Agilent 1100 HPLC system with an auto-sampler (Agilent Technologies, Palo Alto, Calif.), and eluents were introduced to the Quattro Micro triple quadrupole mass spectrometer operated in the neutral loss scanning mode. An Agilent Zorbax SB C18 column (2.1×50 mm) was used for the chromatographic separation. […] At 7 min, the column was flushed with 95% acetonitrile for 2 min before re-equilibration at initial conditions. LC-MS/MS analyses were carried out on 10-μl aliquots of cleaned samples. Data were processed using the Masslynx version 4.0 software from Micromass. After a positive peak was detected, MS/MS spectra were subsequently obtained to further confirm the structure of the adduct(s). To acquire CID (Collision Induced Dissociation) spectra, the mass spectrometer was operated in the multiple reaction monitoring (MRM) mode.

Structure (SMILES) | components (reactive metabolite adducts) showing the characteristic isotopic doublet in the neutral loss scan
c1ccoc1 [Furan] | displayed the characteristic isotopic doublet
COc1ccc2[nH]c([S+]([O-])Cc3ncc(C)c(OC)c3C)nc2c1 (stereo not drawn) [Omeprazole] | Only one component
c1coc(-c2cccs2)c1 [2-(2-Thienyl)-furan] | showed the characteristic isotopic doublet
O=C(O)Cc1ccccc1Nc1c(Cl)cccc1Cl [Diclofenac] | two of the components showed the expected isotope doublet
Cc1coc2c1CCC(C)C2 (stereo not drawn) [Menthofuran] | One component
Cc1ccco1 [2-Methylfuran] | Two isomeric adducts

Reference: patent US7884186B2, “Isotopically labeled trapping agent and method for identifying reactive metabolites” (Janssen Pharmaceutica NV, priority 2006, dated 2011)
